Reference: ChEMBL document CHEMBL1130757, “Synthetic arabinofuranosyl oligosaccharides as mycobacterial arabinosyltransferase substrates” (1998)

Experiments:
Assay type in all cases: functional
[1] = system: Mycolicibacterium smegmatis; assay: Tested for recognition of mycobacterial arabinosyl transferase incubated with 14C1 labeled decaprenol arabinofuranosyl phosphate in the presence of membrane extracts from Mycobacterium smegmatis in experiment 3 (%incorporation = 12.4)
[2] = system: Mycolicibacterium smegmatis; assay: Tested for recognition of mycobacterial arabinosyl transferase incubated with 14C1 labeled decaprenol arabinofuranosyl phosphate in the presence of membrane extracts from Mycobacterium smegmatis in experiment 1 (%incorporation = 13.8)
[3] = system: Mycolicibacterium smegmatis; assay: Average value of incorporation for recognition of mycobacterial arabinosyl transferase in experiments 1, 2 and 3 (%incorporation = 14)
[4] = system: Mycolicibacterium smegmatis; assay: Tested for recognition of mycobacterial arabinosyl transferase incubated with 14C1 labeled decaprenol arabinofuranosyl phosphate in the presence of membrane extracts from Mycobacterium smegmatis in experiment 2 (%incorporation = 15.8)
[5] = system: Mycolicibacterium smegmatis; assay: Tested for recognition of mycobacterial arabinosyl transferase incubated with 14C1 labeled decaprenol arabinofuranosyl phosphate in the presence of membrane extracts from Mycobacterium smegmatis in experiment 2 (%incorporation = 15.2)
[6] = system: Mycolicibacterium smegmatis; assay: Tested for recognition of mycobacterial arabinosyl transferase incubated with 14C1 labeled decaprenol arabinofuranosyl phosphate in the presence of membrane extracts from Mycobacterium smegmatis in experiment 1 (%incorporation = 16.4)
[7] = system: Mycolicibacterium smegmatis; assay: Average value of incorporation for recognition of mycobacterial arabinosyl transferase in experiments 1 and 2 (%incorporation = 16.1)
[8] = system: Mycolicibacterium smegmatis; assay: Average value of incorporation for recognition of mycobacterial arabinosyl transferase in experiments 1, 2 and 3 (%incorporation = 12.7)
[9] = system: Mycolicibacterium smegmatis; assay: Tested for recognition of mycobacterial arabinosyl transferase incubated with 14C1 labeled decaprenol arabinofuranosyl phosphate in the presence of membrane extracts from Mycobacterium smegmatis in experiment 1 (%incorporation = 12.9)
[10] = system: Mycolicibacterium smegmatis; assay: Tested for recognition of mycobacterial arabinosyl transferase incubated with 14C1 labeled decaprenol arabinofuranosyl phosphate in the presence of membrane extracts from Mycobacterium smegmatis in experiment 2 (%incorporation = 12.9)
[11] = system: Mycolicibacterium smegmatis; assay: Tested for recognition of mycobacterial arabinosyl transferase incubated with 14C1 labeled decaprenol arabinofuranosyl phosphate in the presence of membrane extracts from Mycobacterium smegmatis in experiment 3 (%incorporation = 16.4)
[12] = system: Mycolicibacterium smegmatis; assay: Tested for recognition of mycobacterial arabinosyl transferase incubated with 14C1 labeled decaprenol arabinofuranosyl phosphate in the presence of membrane extracts from Mycobacterium smegmatis in experiment 2 (%incorporation = 16.1)
[13] = system: Mycolicibacterium smegmatis; assay: Average value of incorporation for recognition of mycobacterial arabinosyl transferase in experiments 1, 2 and 3 (%incorporation = 17.2)
[14] = system: Mycolicibacterium smegmatis; assay: Tested for recognition of mycobacterial arabinosyl transferase incubated with 14C1 labeled decaprenol arabinofuranosyl phosphate in the presence of membrane extracts from Mycobacterium smegmatis in experiment 1 (%incorporation = 19.1)
[15] = system: Mycolicibacterium smegmatis; assay: Tested for recognition of mycobacterial arabinosyl transferase incubated with 14C1 labeled decaprenol arabinofuranosyl phosphate in the presence of membrane extracts from Mycobacterium smegmatis in experiment 2 (%incorporation = 22.5)
[16] = system: Mycolicibacterium smegmatis; assay: Tested for recognition of mycobacterial arabinosyl transferase incubated with 14C1 labeled decaprenol arabinofuranosyl phosphate in the presence of membrane extracts from Mycobacterium smegmatis in experiment 3 (%incorporation = 18.2)
[17] = system: Mycolicibacterium smegmatis; assay: Tested for recognition of mycobacterial arabinosyl transferase incubated with 14C1 labeled decaprenol arabinofuranosyl phosphate in the presence of membrane extracts from Mycobacterium smegmatis in experiment 1 (%incorporation = 21.9)
[18] = system: Mycolicibacterium smegmatis; assay: Average value of incorporation for recognition of mycobacterial arabinosyl transferase in experiments 1, 2 and 3 (%incorporation = 20.8)

Q: With CO[C@H]1O[C@H](CO[C@H]2O[C@H](CO)[C@@H](O[C@H]3O[C@H](CO)[C@@H](O)[C@@H]3O)[C@@H]2O)[C@@H](O)[C@@H]1O as the compound, how does the Incorporation [1] read?
A: 4960 c.p.m.

Q: And the Incorporation [2]?
A: 5513 c.p.m.

Q: And the Average [3]?
A: 5600 c.p.m.

Q: What about the Incorporation [4] of the same compound?
A: 6326 c.p.m.

Q: For CO[C@H]1O[C@H](CO[C@H]2O[C@H](CO[C@H]3O[C@H](CO)[C@@H](O)[C@@H]3O)[C@@H](O[C@H]3O[C@H](CO)[C@@H](O)[C@@H]3O)[C@@H]2O)[C@@H](O)[C@@H]1O, which Incorporation [5] is on record?
A: 6092 c.p.m.

Q: What about the Incorporation [6] of the same compound?
A: 6540 c.p.m.

Q: What about the Average [7] of the same compound?
A: 6433 c.p.m.

Q: For CO[C@H]1O[C@H](CO[C@H]2O[C@H](CO)[C@@H](O)[C@@H]2O)[C@@H](O)[C@@H]1O, which Average [8] is on record?
A: 5095 c.p.m.

Q: What about the Incorporation [1] of the same compound?
A: 4990 c.p.m.

Q: What about the Incorporation [9] of the same compound?
A: 5148 c.p.m.

Q: And the Incorporation [10]?
A: 5148 c.p.m.

Q: With CO[C@H]1O[C@H](CO)[C@@H](O[C@H]2O[C@H](CO)[C@@H](O)[C@@H]2O)[C@@H]1O as the compound, how does the Incorporation [11] read?
A: 6563 c.p.m.

Q: What about the Incorporation [12] of the same compound?
A: 6432 c.p.m.

Q: And the Average [13]?
A: 6876 c.p.m.

Q: What about the Incorporation [14] of the same compound?
A: 7632 c.p.m.

Q: Which results are given for CO[C@H]1O[C@H](CO[C@H]2O[C@H](CO[C@H]3O[C@H](CO)[C@@H](O)[C@@H]3O)[C@@H](O)[C@@H]2O)[C@@H](O)[C@@H]1O?
A: Incorporation [15]: 9011 c.p.m.; Incorporation [16]: 7271 c.p.m.; Incorporation [17]: 8732 c.p.m.; Average [18]: 8338 c.p.m.
